Patent US20250064766A1, “COMPOSITIONS AND METHODS FOR INCREASING ARGININE AND NITRIC OXIDE LEVELS” (priority 2023, published 2025)
Values after ≈ are worked out from the molar mass of the structure shown.

How the values were obtained:
[1] = Urine arginine and citrulline levels following stimulating agent dosing (LC-MRM/MS); type: in vivo
Procedure: The subjects in each of Groups A and B were given a single 6 g dose (powder dissolved in about 4 oz of water). A urine sample is taken from each subject prior to dosing (baseline) and 24 hours after dosing. The pre-dosing sample for each subject is used as a baseline from which to compare any increase or decrease in arginine and/or citrulline urine levels. • Group A (8 subjects): 6 g of citrulline HCl in 4 oz. of water • Group B (8 subjects): 6 g of L-Citrulline in 4 oz. of water
A third group, consisting of seven subjects, were given a single 2 g dose, otherwise following the same protocol: • Group C (7 subjects): 2 g of citrulline HCl in 4 oz. of water
Internal standard (IS) solutions of arginine-13C6 and citrulline-d7 were prepared in 6 percent trichloroacetic acid solution. Standard substances of arginine and citrulline HCl were precisely weighed and dissolved in Sigmatrix Urine Diluent to make their stock solutions, at 5 mM for each compound. The two stock solutions were then mixed at an equal volume and the mixed standard solution was step by step diluted with Sigmatrix Urine Diluent to have nine serially diluted calibration solutions. The concentrations of each compound in the calibration solutions ranged from 0.015 to 250 μM.
Urine samples were thawed at room temperature. After vortex-mixing for 5 s, 100 μL of each sample was precisely aliquoted into a 1.5-mL Eppendorf safe-lock tube. A mixed urine sample was pooled from 100 μL of each of 10 randomly selected among all the urine samples. Nine 100-μL aliquots of this pooled urine sample were processed along with the batch samples and the calibration solutions for the purpose of quality control (QC) to monitor the analytical variations of the sample preparation and the assay.
To 100 μL of urine or 100 μL of each calibration solution, 100 μL of the IS solution was added. The mixtures were vortexed for 10 s at 3,000 rpm and then sonicated in an ice-water bath for 1 min, followed by centrifugal clarification at 21,000 g and 10° C. for 10 min. 100 μL of the clear supernatant of each solution was mixed with 900 μL of water. 4-μL aliquots of the resultant sample and calibration solutions were injected to run liquid chromatography-multiple reaction monitoring mass spectrometry (LC-MRM/MS) on an Agilent 1290 UHPLC system connected to an Agilent 6495B triple-quadrupole mass spectrometer, which was operated with positive-ion electrospray ionization and in the MRM mode using two pairs of MRM ion transitions and other MS parameters for arginine and citrulline, respectively.
A Waters HSS T3 UPLC column (2.1*100 mm, 1.8 μm) was used for the chromatographic separation and a 5-mM heptafluorobutyric acid solution and acetonitrile were used as the mobile phase for binary-solvent gradient elution under optimized conditions. LC-MRM/MS raw data files were acquired and processed using the Agilent MassHunter® software suite. For concentration calculations, linearly regressed calibration curves of arginine and citrulline were constructed respectively with the data acquired from the calibration solutions. Concentrations of the two compounds detected in urine were calculated by interpolating the calibration curve with the peak area ratios areas measured from the sample solutions, in an appropriate concentration range for each compound.

[2] = physchem; conditions: 16.7 °C, thermodynamic from solid
Procedure: Add five grams of conjugate or blend into 100 mL of water in a 250 ml Beaker. • 2. Record temperature of water before adding conjugate or blend. • 3. After conjugate is added to water, stir or swirl solution for 2 minutes exactly. • 4. If the solution is still cloudy or precipitate is present after 2 minutes, promptly transfer mixture into filter. • 5. If the solution is not cloudy and all of conjugate appears to have gone into solution, add another five grams of conjugate and repeat on from step 3. • 6. Record all data and amounts of conjugate added. • 7. Once solution with precipitate has been filtered, dry the filter with conjugate and use mass by difference to record dry mass of conjugate.
(§1) The solution was filtered, dried, and massed.
as §1, §1, §1, §1

[3] = Plasma arginine and citrulline levels following stimulating agent dosing (LC-MRM/MS); type: in vivo
Procedure: Plasma samples from each of Groups A, B, and C were taken from each subject prior to dosing (baseline) and at 30 minute intervals thereafter up to 180 minutes after dosing (30, 60, 90, 120, and 180 minutes). The pre-dosing sample for each subject is used as a baseline from which to compare any increase or decrease in arginine and/or citrulline plasma levels.
Internal standard (IS) solution of arginine-13C6 and citrulline-d7 were prepared in 6 percent trichloroacetic acid solution. Standard substances of arginine and citrulline were precisely weighed and dissolved in SigMatrix Ultra Serum Diluent to make their stock solutions, at 2000 or 4000 µM for each compound. The stock solutions were then mixed and further diluted with SigMatrix Ultra Serum Diluent to have 9 serially diluted calibration solutions. The concentrations of each compound in the calibration solutions ranged from 0.0008 to 50 μM.
Plasma samples were thawed at room temperature. After vortex-mixing for 5 s, 50 μL of each sample was precisely aliquoted into a 1.5-mL Eppendorf safe-lock tube. […] Twelve 50-μL aliquots of this pooled plasma sample were processed in parallel and analyzed periodically, along with the preparation and analysis of the batch samples and the calibration solutions for the purpose of quality control (QC) to monitor the analytical variations of the sample preparation and the assay. […]

[4] = single 6 g dose in 4 oz. of water, 24 hours after dosing
[5] = single 6 g dose in 4 oz. of water, Baseline (prior to dosing)

Row | Compound | percent increase in urine citrulline 24 hours after dosing per gram ([1]; single 6 g dose) | Citrulline Urine Levels Total Average Amount [1, 4] | Citrulline Urine Levels Total Average Amount [1, 5] | solubility at 2 min ([2]; water) [mg/mL] | amount of citrulline in plasma, comparison of Groups A-C ([3]; single 6 g dose) | concentration at 24 h ([1]; human, urine, oral, single 2 g dose in 4 oz. of water, 24 hours after dosing, read-out: Citrulline Urine Levels Total Average Amount) [µM] | percent increase in urine citrulline 24 hours after dosing per gram ([1]; single 2 g dose) | Citrulline Urine Levels Total Average Amount ([1]; single 2 g dose in 4 oz. of water, Baseline (prior to dosing)) | solubility at 2 min [2] [mg/mL] | arginine production per dose, comparison of Groups A-C (plasma) ([3]; single 2 g dose, normalized per dose)
1 | NC(=O)NCCC[C@H](N)C(=O)O [L-Citrulline, L-citrulline, reference compound] | about 1000 percent/g | 128,215.41 μM | 2,042.91 μM | 49.8 (≈ 284 mM) | much larger amount of citrulline in plasma | – | – | – | – | –
2 | Cl.NC(=O)NCCC[C@H](N)C(=O)O [Citrulline HCl, citrulline hydrochloride] | about 300 percent/g | 157,053.26 μM | 8,773.04 μM | – | – | 17900 | about 300 percent/g | 2,471.80 μM | 149 | highest arginine production per dose
